Source: PMC12463120, “Phenylalanine‐Based DNA‐Encoded Chemical Libraries for the Discovery of Potent and Selective Small Organic Ligands Against Markers of Cancer and Immune Cells” (Advanced Science, 2025)

Assays:
human CAIX (hCAIX) = molecular target: T1, human CAIX (hCAIX) (Homo sapiens, UniProt Q16790); assay: Fluorescence polarization (FP) affinity against hCAIX; type: binding; conditions: fluorescein derivatives
T1 construct: made in house; host or cells: CHO cells
Method: A dilution series of target proteins (i.e., PSMA, GCP3, CAIX, CAII) in the respective formulation buffer were separately prepared in a black 384-well plate (non-binding Greiner small volume plate). Test compounds functionalized with fluorescein were diluted to a concentration between 5 and 10 nM (5 μL) and incubated for 15 min with the protein (final volume corresponding to 10 µL). The fluorophore was excited at 485 nm, and anisotropy was measured at 535 nm on a Spectra Max Paradigm multimode plate reader (Tecan). The experiments were performed in triplicate. KD values measured using this FP method can differ from dissociation constants obtained by other physical methods (e.g., surface plasmon resonance, see section below).

[1] = system: SK-RC-52 renal cell carcinoma cells; assay: Flow cytometry on SK-RC-52 cells; type: cell-based; conditions: 100 nM
PSMA = molecular target: T2, PSMA (Homo sapiens, UniProt Q04609); assay: Fluorescence polarization (FP) affinity against PSMA; type: binding; conditions: fluoresceinated compounds
T2 construct: Avi-tag; made in house; host or cells: CHO cells
T2 sequence (Q04609 whole entry): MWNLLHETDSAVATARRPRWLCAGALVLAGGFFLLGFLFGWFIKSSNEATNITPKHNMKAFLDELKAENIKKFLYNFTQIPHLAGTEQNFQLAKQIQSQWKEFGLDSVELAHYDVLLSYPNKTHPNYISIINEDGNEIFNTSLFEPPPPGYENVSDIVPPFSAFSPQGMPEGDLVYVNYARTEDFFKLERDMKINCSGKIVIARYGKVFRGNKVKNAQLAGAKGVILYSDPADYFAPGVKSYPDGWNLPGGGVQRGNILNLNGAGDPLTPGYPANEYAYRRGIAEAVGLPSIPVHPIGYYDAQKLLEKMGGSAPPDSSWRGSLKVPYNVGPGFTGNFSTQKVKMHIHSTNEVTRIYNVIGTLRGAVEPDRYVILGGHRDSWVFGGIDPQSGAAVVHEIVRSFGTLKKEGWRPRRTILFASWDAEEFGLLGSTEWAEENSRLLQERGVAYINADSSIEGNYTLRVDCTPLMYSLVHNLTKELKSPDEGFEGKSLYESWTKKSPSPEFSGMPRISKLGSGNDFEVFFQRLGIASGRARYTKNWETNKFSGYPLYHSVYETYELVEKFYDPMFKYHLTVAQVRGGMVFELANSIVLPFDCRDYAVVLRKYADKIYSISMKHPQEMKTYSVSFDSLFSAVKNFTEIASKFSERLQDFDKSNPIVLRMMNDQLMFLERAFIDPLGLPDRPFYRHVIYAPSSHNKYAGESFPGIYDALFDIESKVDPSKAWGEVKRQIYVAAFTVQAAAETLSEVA
Method: (§1) Hits obtained from FM‐DEL1 (A1452 and A3113) and FM‐DEL2 (A3113/B423) were re‐synthesized as stereo‐chemically pure off‐DNA compounds derivatized with a C6 linker featuring a fluorescein moiety (coupled to fluorescein isothiocyanate‐FITC) (compounds 1–6) [Figure 2E]. The binding affinity against PSMA and GCP3 (KD) of fluoresceinated compounds 1–6 was measured by fluorescence polarization (FP). […] The superiority of compound 5 (S‐configuration) in binding PSMA over compound 6 (R‐configuration) was confirmed by molecular docking studies [Figure S48, Supporting Information]. […] The presence of the sole building block A3113 on the 3‐iodo‐phenylalanine scaffold in the S‐configuration gives adequate selectivity for PSMA over GCP3. The addition of the second building block (B423) enhances both affinity and selectivity for the target.
(§2) Selection results were decoded with C++^[ [61] ^] and visualized using MATLAB R2019b (MathWorks). EFs were calculated by dividing the DNA sequence counts for each hit compound by the average DNA sequence count from the corresponding DEL screening. Additionally, Z‐score values were calculated following methods previously published,^[ [60] ^] as present in Supporting Information. […] Affinities of fluorescein‐bearing hits were determined by FP or ELISA measurements. […] Binding kinetics were assessed on a Biacore X100 instrument with the target protein immobilized on a CM5 chip at 4′000 RUs. Cell binding of fluorescent ligands was evaluated using flow cytometry against antigen‐positive and antigen‐negative (wild‐type) cancer cells. in vitro tissue uptake of ^177Lu‐labelled DOTAGA PSMA‐radioligands was measured via autoradiography. […]
(§3) The protein was then concentrated using Vivaspin® 20 centrifugal concentrators (30’000 Da molecular weight cutoff, Sartorius, #VS2012) and then purified by SEC or PD-10 column. The fractions were measured (absorption at 280 nm) on a Nanodrop 2000 Spectrophotometer to combine protein-containing fractions. […]
(§4) 2.11 Fluorescence polarization (FP) measurements with fluoresceine-labelled […]

[2] = system: HT-1080.hPSMA tumor cells; assay: Flow cytometry on HT-1080.hPSMA cells; type: cell-based; conditions: 250 nM
Method: (§5) Selection results were decoded with C++^[ [61] ^] and visualized using MATLAB R2019b (MathWorks). EFs were calculated by dividing the DNA sequence counts for each hit compound by the average DNA sequence count from the corresponding DEL screening. Additionally, Z‐score values were calculated following methods previously published,^[ [60] ^] as present in Supporting Information. Hit compounds with high EFs in the target protein selections and low EFs in the negative controls (anti‐target and streptavidin selections) were selected for hit validation activities. All compounds were synthesized using either solid‐phase peptide synthesis or solution‐phase methodologies. Affinities of fluorescein‐bearing hits were determined by FP or ELISA measurements. […] ACP3 colorimetric inhibition assay was performed with serially diluted compounds at a fixed concentration (5 mM in PBS) of para‐nitrophenyl phosphate as substrate. Binding kinetics were assessed on a Biacore X100 instrument with the target protein immobilized on a CM5 chip at 4′000 RUs. Cell binding of fluorescent ligands was evaluated using flow cytometry against antigen‐positive and antigen‐negative (wild‐type) cancer cells. in vitro tissue uptake of ^177Lu‐labelled DOTAGA PSMA‐radioligands was measured via autoradiography. Prism 9 software (GraphPad Software) was used for data analysis of FP, ELISA, PD‐10, SPR, and enzymatic assay measurements. SPR sensograms were fitted with the Biacore X100 Evaluation Software. Flow cytometry data was processed with the FlowJo 10.4 software.
HT1080.hPSMA and PC3.hACP3 cell lines were generated by lentiviral transduction on wild type cells (HT1080.wt and PC3.wt), according to published procedures9. […]
Cancer cells were detached with an Accutase® cell detachment solution, resuspended in a standard culture medium, and transferred to falcon tubes. Cells were counted and centrifuged at 400 rcf for 3 min. […] Data were acquired halting the measurement at 10´ 000 events on a Cytoflex S flow cytometer (Beckman Coulter), and analyzed using the FlowJo software v10 (BD Biosciences). […]

recombinant human ACP3 = molecular target: T3, recombinant human ACP3 (Homo sapiens, UniProt P15309); assay: Fluorescence polarization (FP) affinity against human ACP3; type: binding; conditions: PSMA ligands as negative controls
T3 construct: made in house; host or cells: CHO cells
T3 sequence (P15309 33-386): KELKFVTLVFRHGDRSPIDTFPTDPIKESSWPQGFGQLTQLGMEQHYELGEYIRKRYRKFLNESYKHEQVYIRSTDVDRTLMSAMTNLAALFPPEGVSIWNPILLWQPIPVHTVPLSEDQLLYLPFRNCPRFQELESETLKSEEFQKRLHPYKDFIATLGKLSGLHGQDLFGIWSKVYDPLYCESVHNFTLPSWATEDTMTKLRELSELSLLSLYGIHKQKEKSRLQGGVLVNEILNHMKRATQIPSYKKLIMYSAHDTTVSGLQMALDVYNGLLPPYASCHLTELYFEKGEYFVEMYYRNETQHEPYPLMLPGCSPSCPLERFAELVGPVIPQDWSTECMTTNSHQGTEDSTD
Method: as §5, with “SPR sensograms were fitted with the Biacore X100 Evaluation Software. Flow cytometry data was processed with the FlowJo 10.4 software.” left out
as §3
Protein dissolved in PBS or HEPES buffer was incubated for 30-60 min with 5 equiv. of EZ-LinkTM NHS-LC-Biotin (Thermo Fisher Scientific, #21336). […] The fractions were measured (absorption at 280 nm) on a Nanodrop 2000 Spectrophotometer to combine protein-containing fractions. […]
as §4

hCAIX = molecular target: T4, hCAIX (Homo sapiens, UniProt Q16790); assay: Surface plasmon resonance (SPR) on hCAIX; type: binding; conditions: for Kd: 500 nM to 250 nM, CM5 chip
T4 construct: made in house; host or cells: CHO cells
Method: 2.14 Surface plasmon resonance (SPR)
SPR measurements were performed on a Biacore X100. Human recombinant ACP3 or CAIX were immobilized on a CM5 chip (Cytiva, #BR100012, both flow cells), reaching ~4000 RUs, using the EDC/NHS protocol provided by the manufacturer. The target protein immobilized on the reference flow cell was treated with denaturing solution (0.85% H3PO4, 10 mM NaOH, and 50 mM HCl). PBS (pH 7.4) was used as running buffer. Test compounds were injected at different concentrations in running buffer, according to a multicycle analysis with the following settings: 120 seconds contact time and 5´000 seconds (CAIX measurements) or 15´ 000 seconds (ACP3 measurements) dissociation time at a flow rate of 10 μL/min. Sensograms were plotted with GraphPad Prism (version 9, GraphPad Software) and fitted using the Biacore X100 Evaluation Software. […]
30 min at rt and washed with PBS (3 x 200 μL/well). The immobilized protein was incubated for 30 min in the dark with serial dilution of FITC-labelled compounds and washed with PBS (3 x 200 μL/well). A solution of rabbit polyclonal FITC antibody-horseradish peroxidase (anti-FITC-HRP, Abcam, #ab196968) 0.25 μg/mL in 2% milk-PBS was added to each well (100 μL/well) and incubated for additional 30 min in the dark at rt. Each well was washed with PBS 0.1% Tween (3 x 200 μL/ well) and with PBS (3 x 200 μL/ well). The substrate 3,3′,5,5′ -tetramethylbenzidine (TMB, Sigma Aldrich #T0440) was added (100 μL /well) and developed in the dark for 0.5-1 min. The reaction was stopped by adding 50 μL of an aqueous solution of H2SO4 1M. The absorbance was measured at 450 nm (reference level, 620–650 nm) with a Spark multimode microplate reader (Tecan Life Sciences). The experiments were […]

GCP3 = molecular target: T5, GCP3 (Homo sapiens, UniProt Q9Y3Q0); assay: Fluorescence polarization (FP) affinity against GCP3; type: binding; conditions: fluoresceinated compounds
T5 construct: Avi-tag; made in house; host or cells: CHO cells
T5 sequence (Q9Y3Q0 whole entry): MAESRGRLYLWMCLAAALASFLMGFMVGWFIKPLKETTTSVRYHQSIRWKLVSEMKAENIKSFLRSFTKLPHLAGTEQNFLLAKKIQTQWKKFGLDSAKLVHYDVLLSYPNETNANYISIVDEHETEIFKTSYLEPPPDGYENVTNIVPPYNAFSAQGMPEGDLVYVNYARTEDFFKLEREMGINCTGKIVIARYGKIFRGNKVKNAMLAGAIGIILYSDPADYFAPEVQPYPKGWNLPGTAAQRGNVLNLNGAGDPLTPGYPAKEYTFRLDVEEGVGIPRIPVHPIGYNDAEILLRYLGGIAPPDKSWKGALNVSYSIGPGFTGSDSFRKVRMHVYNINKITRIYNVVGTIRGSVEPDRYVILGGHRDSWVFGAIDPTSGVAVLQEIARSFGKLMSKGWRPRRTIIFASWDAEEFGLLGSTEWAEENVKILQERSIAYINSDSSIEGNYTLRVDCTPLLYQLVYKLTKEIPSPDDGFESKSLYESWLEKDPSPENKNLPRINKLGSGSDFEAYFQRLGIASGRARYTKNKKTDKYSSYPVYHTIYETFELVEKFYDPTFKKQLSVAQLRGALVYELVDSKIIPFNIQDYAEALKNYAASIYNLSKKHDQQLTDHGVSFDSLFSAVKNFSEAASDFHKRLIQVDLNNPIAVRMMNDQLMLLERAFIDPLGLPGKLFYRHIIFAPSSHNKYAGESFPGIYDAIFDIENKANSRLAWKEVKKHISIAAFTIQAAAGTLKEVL
Method: as §1, with “The addition of the second building block (B423) enhances both affinity and selectivity for the target.” left out
as §2, with “RUs.” for “RUs. Cell binding of fluorescent ligands was evaluated using flow cytometry against antigen‐positive and antigen‐negative (wild‐type) cancer cells. in vitro tissue uptake of ^177Lu‐labelled DOTAGA PSMA‐radioligands was measured via autoradiography.”
as §4

NS(=O)(=O)c1nnc(Nc2cccc(C[C@H](NC(=O)CCC(=O)N[C@@H](CCCCNC(=S)Nc3ccc4c(c3)C(=O)OC43c4ccc(O)cc4Oc4cc(O)ccc43)C(=O)O)C(=O)NCC3(c4cccs4)CCOCC3)c2)s1 [compound 23]
Kd (human CAIX (hCAIX)): 0.00206 µM

NS(=O)(=O)c1ccc(-c2cccc(C[C@H](NC(=O)CCC(=O)N[C@@H](CCCCNC(=S)Nc3ccc4c(c3)C(=O)OC43c4ccc(O)cc4Oc4cc(O)ccc43)C(=O)O)C(=O)NCC3(c4cccs4)CCOCC3)c2)cc1 [compound 20]
Kd (human CAIX (hCAIX)): 0.00246 µM

NS(=O)(=O)c1nnc(Nc2cccc(C[C@@H](NC(=O)CCC(=O)N[C@@H](CCCCNC(=S)Nc3ccc4c(c3)C(=O)OC43c4ccc(O)cc4Oc4cc(O)ccc43)C(=O)O)C(=O)NCC3(c4cccs4)CCOCC3)c2)s1 [compound 24]
Kd (human CAIX (hCAIX)): 0.00185 µM
binding to CAIX on the cell surface by flow cytometry [1]: bound to the antigen expressed on the surface of cancer cells

O=C(O)CC[C@H](NC(=O)N[C@@H](Cc1cccc(I)c1)C(=O)NCCCCCCNC(=S)Nc1ccc2c(c1)C(=O)OC21c2ccc(O)cc2Oc2cc(O)ccc21)C(=O)O [compound 3]
Kd (PSMA): 0.099 µM
binding to PSMA on the cell surface by flow cytometry [2]: only compound 5 was able to bind
binding to human ACP3 by FP (recombinant human ACP3): did not bind

NS(=O)(=O)c1ccc(-c2cccc(C[C@@H](NC(=O)CCC(=O)N[C@@H](CCCCNC(=O)CC[C@H](C(=O)O)N3CCN(CC(=O)O)CCN(CC(=O)O)CCN(CC(=O)O)CC3)C(=O)O)C(=O)NCC3(c4cccs4)CCOCC3)c2)cc1 [compound 22]
association rate (kon) on hCAIX by SPR (hCAIX): fast association rates
Kd (hCAIX): 0.05 µM

NS(=O)(=O)c1nnc(Nc2cccc(C[C@@H](NC(=O)CCC(=O)N[C@@H](CCCCNC(=O)CC[C@H](C(=O)O)N3CCN(CC(=O)O)CCN(CC(=O)O)CCN(CC(=O)O)CC3)C(=O)O)C(=O)NCC3(c4cccs4)CCOCC3)c2)s1 [compound 25]
association rate (kon) on hCAIX by SPR (hCAIX): fast association rates
dissociation rate (koff) on hCAIX by SPR (hCAIX): slower dissociation rate
Kd (hCAIX): 0.013 µM

O=C(O)CC[C@H](NC(=O)N[C@@H](Cc1ccc(I)cc1)C(=O)NCCCCCCNC(=S)Nc1ccc2c(c1)C(=O)OC21c2ccc(O)cc2Oc2cc(O)ccc21)C(=O)O [compound 1]
Kd (PSMA): 0.087 µM
Kd (GCP3): 0.081 µM
binding to PSMA on the cell surface by flow cytometry [2]: only compound 5 was able to bind
binding to human ACP3 by FP (recombinant human ACP3): did not bind
